Test results from the supplement of paper PMC10627819.

Columns and labels:
B. subtilis 168 [1] = assay: fitness (endpoint OD595 vs no drug) (fraction); higher = more growth
Summary of the method: (§1)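 Fitness expresses the optical density reached at the stationary-phase transition as a fraction of the robust mean of no-drug control wells. It is capped at 1. Measurements were OD595 every 30 min for 14 h at 37 °C after inoculation of 384-well plates at OD595 0.01 (30 µl, or 55 µl for S. pneumoniae), minus the first reading.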

S. aureus DSM 20231 [2] = assay: as above
Summary of the method: as §1

B. subtilis 168 [3] = assay: Bliss interaction score (quartile over a dose matrix) (fitness difference); higher = more antagonism (negative = synergy)
Summary of the method: (§2)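 Growth was read as OD595 when cultures entered stationary phase, and each value was divided by the plate's robust no-drug mean and capped at 1. This normalised ratio is the fitness value, and fitness for each single drug came from the combination data. The Bliss score subtracts the expected fitness, taken as the product, from the observed fitness and is given as quartiles across technical, biological and donor/recipient replicates.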

S. aureus DSM 20231 [4] = assay: as above
Summary of the method: as §2

S. aureus Newman = assay: as above
Summary of the method: as §2

S. pneumoniae D39V [5] = assay: as above
Summary of the method: as §2

S. pneumoniae D39V [6] = assay: fitness (endpoint OD595 vs no drug) (fraction); higher = more growth
Summary of the method: as §1
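Throughout, for Bliss interaction score (quartile over a dose matrix): first quartile when negative (synergy) and third quartile when positive (antagonism).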
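Throughout, for fitness (endpoint OD595 vs no drug): OD595 on entry to stationary phase over no-drug wells; at most 1.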

CC(=O)NC[C@H]1CN(c2ccc(N3CCOCC3)c(F)c2)C(=O)O1 [Linezolid] + COc1cc(Cc2cnc(N)nc2N)cc(OC)c1OC [Trimethoprim]
one replicate
Settings	fitness
B. subtilis 168 [1], first compound 0.0625 µg/mL, partner 0.125 µg/mL	0.455
B. subtilis 168 [1], first compound 0.0625 µg/mL, partner 0.25 µg/mL	0.379
B. subtilis 168 [1], first compound 0.0625 µg/mL, partner 0.5 µg/mL	0.365
B. subtilis 168 [1], first compound 0.125 µg/mL, partner 0.1 µg/mL	0.661
B. subtilis 168 [1], first compound 0.125 µg/mL, partner 0.2 µg/mL	0.51
B. subtilis 168 [1], first compound 0.125 µg/mL, partner 0.4 µg/mL	0.458
B. subtilis 168 [1], first compound 0.125 µg/mL, partner 1 µg/mL	0.338
B. subtilis 168 [1], first compound 0.125 µg/mL, partner 2 µg/mL	0.252
B. subtilis 168 [1], first compound 0.25 µg/mL, partner 0.1 µg/mL	0.224
B. subtilis 168 [1], first compound 0.25 µg/mL, partner 0.2 µg/mL	0.137
B. subtilis 168 [1], first compound 0.25 µg/mL, partner 0.4 µg/mL	0.0855
B. subtilis 168 [1], first compound 0.25 µg/mL, partner 1 µg/mL	0.0539
B. subtilis 168 [1], first compound 0.25 µg/mL, partner 2 µg/mL	0.0332
B. subtilis 168 [1], first compound 0.5 µg/mL, partner 0.1 µg/mL	0.0326
B. subtilis 168 [1], first compound 0.5 µg/mL, partner 0.125 µg/mL	0.0335
B. subtilis 168 [1], first compound 0.5 µg/mL, partner 0.2 µg/mL	0.0707
B. subtilis 168 [1], first compound 0.5 µg/mL, partner 0.4 µg/mL	0.034
B. subtilis 168 [1], first compound 0.5 µg/mL, partner 1 µg/mL	0.0459
B. subtilis 168 [1], first compound 0.5 µg/mL, partner 2 µg/mL	0.0328
S. aureus DSM 20231 [2], first compound 0.125 µg/mL, partner 0.125 µg/mL	0.693
S. aureus DSM 20231 [2], first compound 1 µg/mL, partner 0.125 µg/mL	0.0426
S. aureus DSM 20231 [2], first compound 1 µg/mL, partner 0.25 µg/mL	0.0292
S. aureus DSM 20231 [2], first compound 1 µg/mL, partner 0.5 µg/mL	0.0293

fitness
Settings	partner 0.125 µg/mL	partner 0.25 µg/mL	partner 0.5 µg/mL	partner 1 µg/mL
B. subtilis 168 [1], first compound 0.125 µg/mL	0.481	–	–	–
B. subtilis 168 [1], first compound 0.25 µg/mL	0.178	0.239	0.149	–
B. subtilis 168 [1], first compound 0.5 µg/mL	–	0.0539	0.0519	–
S. aureus DSM 20231 [2], first compound 0.125 µg/mL	–	0.7	0.54	0.0522
S. aureus DSM 20231 [2], first compound 0.25 µg/mL	0.511	0.566	0.462	0.118
S. aureus DSM 20231 [2], first compound 0.5 µg/mL	0.157	0.153	0.139	0.115

Settings	Bliss interaction score
B. subtilis 168 [3]	0.0503
S. aureus DSM 20231 [4]	0.129
S. aureus Newman	0.096
S. pneumoniae D39V [5]	-0.161

CC(=O)NC[C@H]1CN(c2ccc(N3CCOCC3)c(F)c2)C(=O)O1 [Linezolid] + Cn1nnc(-c2ccc(-c3ccc(N4C[C@H](CO)OC4=O)cc3F)cn2)n1 [Tedizolid]
fitness
Settings	partner 0.03125 µg/mL	partner 0.0625 µg/mL	partner 0.125 µg/mL	partner 0.25 µg/mL	partner 0.5 µg/mL
S. aureus DSM 20231 [2], first compound 0.125 µg/mL	–	0.689	0.501	0.257	–
S. aureus DSM 20231 [2], first compound 0.25 µg/mL	–	0.456	0.26	0.141	–
S. aureus DSM 20231 [2], first compound 0.5 µg/mL	–	0.119	0.0888	0.0646	–
S. pneumoniae D39V [6], first compound 0.105 µg/mL	–	–	0.682	0.441	0.141
S. pneumoniae D39V [6], first compound 0.2 µg/mL	0.819	0.825	0.723	–	–
S. pneumoniae D39V [6], first compound 0.21 µg/mL	–	–	0.58	0.286	0.0818
S. pneumoniae D39V [6], first compound 0.4 µg/mL	0.73	0.724	0.633	–	–
S. pneumoniae D39V [6], first compound 0.42 µg/mL	–	–	0.249	0.107	0.0451
S. pneumoniae D39V [6], first compound 0.8 µg/mL	0.549	0.578	0.465	–	–

S. aureus DSM 20231 [2], first compound 1 µg/mL, one replicate
Settings	fitness
partner 0.0625 µg/mL	0.0257
partner 0.125 µg/mL	0.0309
partner 0.25 µg/mL	0.0295

Settings	Bliss interaction score
B. subtilis 168 [3]	-0.188
S. aureus DSM 20231 [4]	-0.185
S. aureus Newman	-0.153
S. pneumoniae D39V [5]	-0.148
